Measured values as given in patent US9650361B2, “N-(pyridin-2-yl)pyrimidin-4-amine derivatives containing a sulfoximine group” (BAYER PHARAM AKTIENGESELLSCHAFT, priority 2012, dated 2017).
pIC50: −log10 of the molar value.

Experiments:
[1] = molecular target: T1, human carbonic anhydrase-1 (Homo sapiens, UniProt P00915); assay: Carbonic anhydrase assay, carbonic anhydrase-1 (Method 6); format: biochemical; settings: read-out: Inhibition of Carbonic anhydrase-1 IC50
T1 construct: purchased Sigma C4396
Method: (§1) 6. Carbonic Anhydrase Assay
(§2) The principle of the assay is based on the hydrolysis of 4-nitrophenyl acetate by carbonic anhydrases (Pocker & Stone, Biochemistry, 1967, 6, 668), with subsequent photometric determination of the dye product 4-nitrophenolate at 400 nm by means of a 96-channel spectral photometer.
(§3) 2 μL of the test compounds, dissolved in DMSO (100-fold final concentration), in a concentration range of 0.03-10 μmol/L (final), was pipetted as quadruplicates into the wells of a 96-hole microtiter plate. Wells that contained the solvent without test compounds were used as reference values (1. Wells without carbonic anhydrase for correction of the non-enzymatic hydrolysis of the substrate, and 2. Wells with carbonic anhydrase for determining the activity of the non-inhibited enzyme).
(§4) 188 μL of assay buffer (10 mmol/L of Tris/HCl, pH 7.4, 80 mmol/L of NaCl), with or without 3 units/well of carbonic anhydrase-1 [=human carbonic anhydrase-1 (Sigma, #C4396)] in order to determine carbonic anhydrase-1 inhibition or 3 units/well of carbonic anhydrase-2 [=human carbonic anhydrase-2 (Sigma, #C6165)] for measuring carbonic anhydrase-2 inhibition, was pipetted into the wells of the microtiter plate.

[2] = molecular target: T2, human carbonic anhydrase-2 (Homo sapiens, UniProt P00918); assay: Carbonic anhydrase assay, carbonic anhydrase-2 (Method 6); format: biochemical; settings: read-out: Inhibition of Carbonic anhydrase-2 IC50
T2 construct: purchased Sigma C6165
Method: as §1, §2, §3, §4

T1 sequence (P00915 whole entry): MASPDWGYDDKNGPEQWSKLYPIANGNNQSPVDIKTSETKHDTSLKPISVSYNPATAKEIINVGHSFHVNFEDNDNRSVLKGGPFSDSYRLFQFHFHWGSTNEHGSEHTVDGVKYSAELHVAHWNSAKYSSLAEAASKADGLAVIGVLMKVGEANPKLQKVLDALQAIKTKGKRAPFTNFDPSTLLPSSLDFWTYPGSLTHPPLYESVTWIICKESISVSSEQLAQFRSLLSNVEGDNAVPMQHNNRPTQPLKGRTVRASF

pIC50 [1]: < 5.00
pIC50 [2]: < 5.00
Compound: COc1cc(F)ccc1-c1cc(Nc2cc(CS(C)(=N)=O)ccn2)ncn1 (racemic) [Example 1, (rac)-6-(4-Fluoro-2-methoxyphenyl)-N-{4-[(S-methylsulfonimidoyl)methyl]pyridin-2-yl}pyrimidin-4-amine]
